Converted amounts (≈) assume the structure as drawn. “And” between values parts separate entries of the source, which are not always exact repeats. Identical values can stand only once. Like-named read-outs stand apart in the source and are kept apart here. Where a SMILES comes first, the peptide text is derived from it. [ ]: non-standard residue; d: D form. The star is where a group is joined. NMeF = CN[C@@H](Cc1ccccc1)C(=O)O; NMeK = CN[C@@H](CCCCN)C(=O)O; Decanoyl = CCCCCCCCCC(=O)*
How the values were obtained:
[1] = Critical micelle concentration by conductimetry in Milli-Q water; type: physicochemical; conditions: 25 °C
Procedure: On the other hand, acylation confers that the peptide has capacity to self-assemble into nanostructures, resulting in a surfactant-like structure, which may affect the extent of peptide insertion and disruption of bacterial membrane integrity. In this work, the CMC of the lipopeptides was determined by conductimetry in Milli-Q water. All the lipopeptides adopted a micellar assembly with CMC values ranging from 2.0 to 5.7 mM (Table 1). […] This effect appeared to be more important when substitution by an N-methyl amino acid was performed on amino acids located on the non-polar face of the amphipathic helix (CMC values of C10:0-A2(8-NMePhe) = 2.01 mM). For all the lipopeptides, the CMC values remained above the MIC values, which could indicate that these molecules interact with the cell membrane as monomers and, consequently, that this property would not be necessary for antimicrobial activity. This notion is in concordance with reports in the literature on short cationic lipopeptides.
A lipopeptide solution was prepared in Milli Q water, and the specific conductivity of each lipopeptide solution, in a concentration ranging from 0.06 to 18 mg/mL, was measured using a drop conductivity meter (HORIBA, Kyoto, Japan), at 25 °C. Conductivity values were plotted vs. lipopeptide concentration (mS × cm^−1 vs. mg/mL), and the CMC was graphically determined.

C. albicans PEEC 2 = type: cell-based, Candida albicans; conditions: PEEC 2, 24 h
Procedure: (§1) Each inoculum was taken and the cellular concentration was adjusted to 2 × 10^3 CFU/mL in Sabouraud Dextrose Broth (SDB) (Biokar Diagnostics, Cedex, France). Next, 50 µL of these inocula was added to 50 µL of peptide solution in serial 2-fold dilutions. […] […] The test was conducted in triplicate.

Gram (−) bacteria = conditions: for MIC Average Bacteria Gram (−): average over Gram (−) strains; for TI Bacteria Gram (−), HC50/MIC average: first value of the cell, a single value holds for HC50 and IC50 (400 µM used); for TI Bacteria Gram (−), IC50/MIC average: second value of the cell, HeLa IC50 based
Procedure: (§2) The MIC against bacterial strains was determined by the modified broth microtiter dilution method, following the procedures proposed by R.E.W. Hancock Laboratory for testing antimicrobial peptides. The target strains Escherichia coli ATCC 35218, Pseudomonas aeruginosa ATCC 27853, Enterococcus faecalis ATCC 29212, and Staphylococcus aureus ATCC 25923 belong to the American Type Culture Collection (ATCC). The Methicillin-Resistant Staphylococcus aureus BSF FBCB1313 strain (MRSA) was provided by the Clinical Bacteriology Section of FBCB-UNL. All strains were activated by culture for 24 h at 37 °C in Mueller-Hinton Broth (MHB) (Biokar Diagnostics, Cedex, France). Each inoculum was taken and adjusted to a cellular concentration of 5 × 10^5 colony-forming units (CFU)/mL in diluted MHB. All the peptides were dissolved in bovine serum albumin buffer with the addition of 0.01% acetic acid; 100 µL of each inoculum was added to 11 µL of peptide solution in serial 2-fold dilutions and were incubated for 18–24 h at 37 °C. The MIC was the lowest peptide concentration that inhibited visible growth of each bacterial strain. The test was conducted in triplicate.
(§3) The TI is defined as the relationship between the concentration that caused 50% of hemolysis (HC50) or a 50% reduction in HeLa cell viability and the MIC. Thus, higher TI values indicate greater antimicrobial specificity. […] The average MIC for each peptide against different microorganism groups was used to calculate the TI value.

Gram (+) bacteria = conditions: for MIC Average Bacteria Gram (+): average over Gram (+) strains; for TI Bacteria Gram (+), HC50/MIC average: first value of the cell, a single value holds for HC50 and IC50 (400 µM used); for TI Bacteria Gram (+), IC50/MIC average: second value of the cell, HeLa IC50 based
Procedure: as §2, §3

Yeast = conditions: for MIC Average Yeast: 24 h; for TI Yeast, HC50/MIC average: first value of the cell, a single value holds for HC50 and IC50 (400 µM used); for TI Yeast, IC50/MIC average: second value of the cell, HeLa IC50 based
Procedure: Each inoculum was taken and the cellular concentration was adjusted to 2 × 10^3 CFU/mL in Sabouraud Dextrose Broth (SDB) (Biokar Diagnostics, Cedex, France). Next, 50 µL of these inocula was added to 50 µL of peptide solution in serial 2-fold dilutions. […] The MIC was considered the lowest peptide concentration that inhibited visible growth of each yeast strain. The test was conducted in triplicate.
as §3

Human erythrocytes = experiment: Hemolysis assay; type: cell-based; conditions: human erythrocytes 0.4% (v/v), 37 °C, 60 min, 6.25 to 400 µM
Procedure: Hemolytic activity was determined using red blood cells and the hemoglobin released was measured at 405 nm. The percentage of hemolysis corresponding to the synthetic compounds is shown in Figure 1 while the HC50 values are provided in Table 3. […] Substitutions by N-methyl and D-amino acids reduced the hemolytic activity of the peptides and lipopeptides. […] For all the peptides and most of the lipopeptides, the HC50 values exceeded 400 μM. Indeed, the HC50 values were lower only for C10:0-A2(9-NMeLys) and C10:0-A2, which were around 300 and 200 μM, respectively.
Erythrocyte lysis was determined using the following previously optimized protocols. Human erythrocytes from a healthy voluntary donor were isolated by centrifugation (3000 rpm for 10 min) after washing three times with Physiological Solution (PS). Erythrocyte solutions were prepared at a concentration of 0.4% (v/v) in PS. Test tubes containing 200 µL of erythrocyte solution were incubated at 37 °C for 60 min with 200 µL of peptide solution at concentrations ranging from 6.25 to 400 µM. After centrifugation at 3000 rpm for 5 min, supernatant absorbance was measured at 405 nm. Lysis induced by 1% Triton X-100 was taken as a 100% reference value.

HeLa cells = conditions: 24 h
Procedure: We assessed the cytotoxicity of the compounds synthesized using HeLa cells.
The 3–4,5-dimethylthiazol-2,5-biphenyl tetrazolium bromide (MTT) cell viability assay was used to assess the cytotoxic activity of synthetic compounds against the human HeLa line. HeLa cells were seeded in 96-well plates at 1 × 10^5 cells/well, in which the peptide solution was added at different concentrations (3.125–400 μM) for 24 h of incubation. Next, MTT reagent (Sigma-Aldrich, St. Louis, MO, USA) was added, and the cells were incubated for 2 h. Then, 100 μL of dimethylsulfoxide (DMSO) was added to each well to dissolve formazan crystals, and the plates were read at 595 nm.

[2] = test system: S. aureus RM * SA1 (Methicillin-resistant Staphylococcus aureus); conditions: S. aureus RM * SA1 (MRSA)
P. aeruginosa ATCC 27853 = type: cell-based, Pseudomonas aeruginosa; conditions: ATCC 27853, 24 h
Procedure: (§4) The test was conducted in triplicate.

S. aureus ATCC 25923 = type: cell-based, Staphylococcus aureus; conditions: ATCC 25923, 24 h
Procedure: as §4

E. faecalis ATCC 29212 = type: cell-based, Enterococcus faecalis; conditions: ATCC 29212, 24 h
Procedure: as §4

E. coli ATCC 35218 = type: cell-based, Escherichia coli; conditions: ATCC 35218, 24 h
Procedure: as §4

C. tropicalis DBFIQ 3 = type: cell-based, Candida tropicalis; conditions: DBFIQ 3, 24 h
Procedure: as §1

Row | Compound | CMC [1] [mM] | MIC (C. albicans PEEC 2) [µM] | MIC Average Bacteria Gram (−) (Gram (−) bacteria) [µM] | TI Bacteria Gram (−), HC50/MIC average (Gram (−) bacteria) | MIC Average Bacteria Gram (+) (Gram (+) bacteria) [µM] | TI Bacteria Gram (+), HC50/MIC average (Gram (+) bacteria) | MIC Average Yeast (Yeast) [µM] | TI Yeast, HC50/MIC average (Yeast) | HC50 ± SD (Human erythrocytes) [µM] | IC50 (HeLa cells) [µM] | MIC [2] [µM] | MIC (P. aeruginosa ATCC 27853) [µM] | MIC (S. aureus ATCC 25923) [µM] | MIC (E. faecalis ATCC 29212) [µM] | MIC (E. coli ATCC 35218) [µM] | MIC (C. tropicalis DBFIQ 3) [µM] | TI Bacteria Gram (−), IC50/MIC average (Gram (−) bacteria) | TI Bacteria Gram (+), IC50/MIC average (Gram (+) bacteria) | TI Yeast, IC50/MIC average (Yeast) | IC50 (HeLa cells; read-out: IC50 ± SD, HeLa cells, MTT, 3.125–400 μM)
1 | CCCCCCCCCC(=O)N[C@H](C(=O)N[C@@H](CCCCN)C(=O)N[C@@H](CCC(N)=O)C(=O)N[C@H](C(=O)N(C)[C@@H](CCCCN)C(=O)N[C@@H](CCCCN)C(=O)N[C@@H](CC(C)C)C(=O)N[C@@H](Cc1ccccc1)C(=O)N[C@@H](CCCCN)C(=O)N[C@@H](CCCCN)C(N)=O)C(C)C)[C@@H](C)CC [C10:0-A2(5-NMeLys), C10:0-IKQV(NMe-K)KLFKK-NH2] (Decanoyl-IKQV[NMeK]KLFKK-NH2) | 3.73 | 179.5 (≈ 256 µg/mL) | 4.2 (≈ 5.99 µg/mL) | 95.2 | 6.5 (≈ 9.28 µg/mL) | 61.5 | 179.5 (≈ 256 µg/mL) | 2.2 | >400 | > 400 | 5.6 (≈ 7.99 µg/mL) | 5.6 (≈ 7.99 µg/mL) | 2.8 (≈ 4 µg/mL) | 11.2 (≈ 16 µg/mL) | 2.8 (≈ 4 µg/mL) | 179.5 (≈ 256 µg/mL) | – | – | – | –
2 | CCCCCCCCCC(=O)N[C@H](C(=O)N[C@@H](CCCCN)C(=O)N[C@@H](CCC(N)=O)C(=O)N[C@H](C(=O)N[C@@H](CCCCN)C(=O)N(C)[C@@H](CCCCN)C(=O)N[C@@H](CC(C)C)C(=O)N[C@@H](Cc1ccccc1)C(=O)N[C@@H](CCCCN)C(=O)N[C@@H](CCCCN)C(N)=O)C(C)C)[C@@H](C)CC [C10:0-A2(6-NMeLys), C10:0-IKQVK(NMe-K)LFKK-NH2] (Decanoyl-IKQVK[NMeK]LFKK-NH2) | 3.63 | 44.9 (≈ 64.1 µg/mL) | 1.1 (≈ 1.57 µg/mL) | 363.6 | 4.2 (≈ 5.99 µg/mL) | 95.2 | 67.3 (≈ 96 µg/mL) | 5.9 | >400 | 400 ± 29 | 5.6 (≈ 7.99 µg/mL) | 0.7 (≈ 0.999 µg/mL) | 1.4 (≈ 2 µg/mL) | 5.6 (≈ 7.99 µg/mL) | 1.4 (≈ 2 µg/mL) | 89.7 (≈ 128 µg/mL) | – | – | – | –
3 | CCCCCCCCCC(=O)N[C@H](C(=O)N[C@@H](CCCCN)C(=O)N[C@@H](CCC(N)=O)C(=O)N[C@H](C(=O)N[C@@H](CCCCN)C(=O)N[C@@H](CCCCN)C(=O)N[C@@H](CC(C)C)C(=O)N(C)[C@@H](Cc1ccccc1)C(=O)N[C@@H](CCCCN)C(=O)N[C@@H](CCCCN)C(N)=O)C(C)C)[C@@H](C)CC [C10:0-A2(8-NMePhe), C10:0-IKQVKKL(NMe-F)KK-NH2] (Decanoyl-IKQVKKL[NMeF]KK-NH2) | 2.01 | 179.5 (≈ 256 µg/mL) | 8.4 (≈ 12 µg/mL) | 47.6 | 6.5 (≈ 9.28 µg/mL) | 61.5 | 179.5 (≈ 256 µg/mL) | 2.2 | >400 | > 400 | 5.6 (≈ 7.99 µg/mL) | 5.6 (≈ 7.99 µg/mL) | 2.8 (≈ 4 µg/mL) | 11.2 (≈ 16 µg/mL) | 11.2 (≈ 16 µg/mL) | 179.5 (≈ 256 µg/mL) | – | – | – | –
4 | CCCCCCCCCC(=O)N[C@H](C(=O)N[C@@H](CCCCN)C(=O)N[C@@H](CCC(N)=O)C(=O)N[C@H](C(=O)N[C@@H](CCCCN)C(=O)N[C@@H](CCCCN)C(=O)N[C@@H](CC(C)C)C(=O)N[C@@H](Cc1ccccc1)C(=O)N(C)[C@@H](CCCCN)C(=O)N[C@@H](CCCCN)C(N)=O)C(C)C)[C@@H](C)CC [C10:0-A2(9-NMeLys), C10:0-IKQVKKLF(NMe-K)K-NH2] (Decanoyl-IKQVKKLF[NMeK]K-NH2) | 3.90 | 89.7 (≈ 128 µg/mL) | 1.8 (≈ 2.57 µg/mL) | 165.8 | 3.7 (≈ 5.28 µg/mL) | 80.7 | 134.6 (≈ 192 µg/mL) | 2.2 | – | > 400 | 2.8 (≈ 4 µg/mL) | 0.7 (≈ 0.999 µg/mL) | 2.8 (≈ 4 µg/mL) | 5.6 (≈ 7.99 µg/mL) | 2.8 (≈ 4 µg/mL) | 179.5 (≈ 256 µg/mL) | 222.2 | 108.1 | 3.0 | –
5 | CC(C)C[C@H](NC(=O)[C@H](CCCCN)NC(=O)[C@H](CCCCN)NC(=O)[C@H](Cc1ccccc1)N(C)C(=O)[C@H](CC(C)C)NC(=O)[C@H](CCCCN)NC(=O)[C@H](CCCCN)NC(=O)[C@H](Cc1ccccc1)N(C)C(=O)[C@H](CC(C)C)NC(=O)[C@@H](N)CCCCN)C(=O)N[C@@H](Cc1ccccc1)C(=O)N[C@@H](CCCCN)C(N)=O [TA4(3,7-NMePhe), KL(NMeF)KKL(NMeF)KKLFK-NH2] (H-KL[NMeF]KKL[NMeF]KKLFK-NH2; N-terminus assumed) | – | 80.2 (≈ 128 µg/mL) | 3.1 (≈ 4.94 µg/mL) | 129.0 | – | 14.1 | 80.2 (≈ 128 µg/mL) | 5.0 | >400 | 86.6 ± 7.35 | 10.0 (≈ 16 µg/mL) | 1.2 (≈ 1.91 µg/mL) | 5.0 (≈ 7.98 µg/mL) | 40.0 (≈ 63.8 µg/mL) | 5.0 (≈ 7.98 µg/mL) | 80.2 (≈ 128 µg/mL) | 27.9 | 3.1 | 1.1 | ~86 µM and 86 µM

Reference: article PMC10215143, “D- and N-Methyl Amino Acids for Modulating the Therapeutic Properties of Antimicrobial Peptides and Lipopeptides” (Antibiotics, 2023)
